According to patent publication US20230310435A1, “HOST DEFENSE PROTEIN (HDP) MIMETICS FOR PROPHYLAXIS AND/OR TREATMENT OF INFLAMMATORY DISEASES OF THE GASTROINTESTINAL TRACT” (priority 2015, published 2023):

How the values were obtained:
[1] = system: acetic acid-induced colitis; assay type: in vivo
Description: (§1) Method for FIG. 14. […] Balb/c mice were fasted for 24 hours. Colitis was induced by injecting 200 μL of 4% acetic acid into the rectum. […] Another group of animals were treated with 5-ASA (5-aminosalicylic acid or mesalamine), and another received no treatment. Seven days after the first dose, five cm of intestine were cleaned in cold saline then weighed.
as §1, with “15.” for “14.”, “dose the colon was examined visually for mucosal injury and scored according to the Table below.” for “dose, five cm of intestine were cleaned in cold saline then weighed.”
Briefly, colitis was induced by injecting 4% acetic acid into the rectum.

[2] = system: DSS-induced colitis; assay: Dextran sulfate sodium (DSS)-induced acute colitis model; assay type: in vivo, male C57BL/6 mice; settings: end of study; brilacidin 400 mg/kg or 5-ASA 50 mg/kg per rectum Days 7-11
Description: The efficacy of brilacidin administered was investigated in a murine model of chemically-induced acute colitis using dextran sulfate sodium (DSS). This was a different in vivo model of IBD to the testing performed in Examples 16 and 17 (where mucosal injury was induced by using acetic acid). DSS-induced colitis in mice is characterized by weight loss, bloody diarrhea, intestinal ulcerations and infiltrations with granulocytes. In mice, DSS was administered from Day 0 to Day 11, as a 5% (w/v) DSS solution in the drinking water of male C57BL/6 mice (Kim J J, et al., J. Vis. Exp., 2012, 60, 3678), to induce severe murine colitis. On Days 7-11, test compound brilacidin (400 mg/kg) or positive control 5-ASA (50 mg/kg) or water (negative control) were administered as a solution, per rectum. On Days 6, 10 and 11, rectal bleeding was assessed using a Hemoccult® kit and stool consistency was visually assessed; severity of symptoms were scored on a scale of 0 (normal) to 4 (severe). Level of pro-inflammatory cytokines interleukin (IL)-6 and IL-1β in distal colon tissue were determined from excised colons using conventional ELISA methods.

[3] = molecular target: human PDE4B2 (Homo sapiens, UniProt Q07343); assay: PDE-Glo phosphodiesterase assay, PDE4; assay type: biochemical; settings: 8 ng PDE4B, 1 μM cAMP substrate, 15 min pre-incubation; read-out: IC50, inhibition of PDE4
Description: Method for FIG. 1. […] The compounds and PDE4B (BPS Biosciences, San Diego, CA) were mixed and pre-incubated at room temperature for 15 minutes. Substrate was added and the reaction was incubated for 7 minutes at room temperature. Data are presented as luminescence units (RLU).
Method for FIG. 2. Phosphodiesterase inhibition assays of PDE4 were performed, using PMX-60056. The PDE-Glo phosphodiesterase assay (Promega, Madison, WI, USA Catalog No. V1361) was performed using 8 ng of PDE4B (BPS Biosciences, San Diego, CA). […] The compounds and PDE4B were mixed and pre-incubated at room temperature for 15 minutes. Substrate was added and the reaction was incubated for 7 minutes at room temperature. Data are presented as luminescence units (RLU).
Phosphodiesterase type 4 (PDE4) is predominant phosphodiesterase expressed in neutrophils, T cells and macrophages. PDE inhibitors show broad spectrum of anti-inflammatory effects in almost all inflammatory cells. PDE4 inhibitors, block the degradative action of PDE4 on cAMP, thereby increasing intracellular levels of cAMP levels which mediate phosphorylation of protein kinases. […] Data are presented as luminescence units (RLU).
The PDE-Glo phosphodiesterase assay was performed according to the Method described for FIG. 2, using 8 ng of PDE4B, 1 μM cAMP substrate PMX-60056. Data are presented as luminescence units (RLU). […]

[4] = system: LPS-induced MCP-1 release, NR8383 cells; assay: LPS-induced MCP-1 release in NR8383 rat macrophages (ELISA); assay type: cell-based
Description: Method for FIG. 7. […] After 8 hours, supernatants were collected for MCP-1 measurement by ELISA. MCP-1 was measured using an immunoassay kit according to manufacturer's instructions (Thermo Scientific, Rockford. IL).
Method for FIG. 8. MCP-1 assays were performed using PMX-60056. Rat macrophages (NR8383) were pretreated with […] with concentrations shown for 45 minutes, followed by 1 μg/ml LPS treatment from E. coli (Sigma, St. Louis, MO) for 8 hours. After 8 hours, supernatants were collected for MCP-1 measurement by ELISA. MCP-1 was measured using an immunoassay kit according to manufacturer's instructions (Thermo Scientific, Rockford, IL).
The MCP-1 inhibition assay was performed according to the Method described for FIG. 7.
The MCP-1 inhibition assay was performed according to the Method described for FIG. 8.
(§2) PDE4 and PDE3 inhibition results in subsequent down-regulation of pro-inflammatory cytokines/chemokines and its regulators, and experiments were conducted to confirm such down-regulation by brilacidin in ex vivo cell-based assays. In these assays, cells were exposed to brilacidin 45 minutes before an 8-hour lipopolysaccharide (LPS) stimulation in the presence of brilacidin; cytokine/enzyme concentrations were determined by ELISA using a standard immunoassay kit.

[5] = system: LPS-induced TNF-α release, NR8383 cells; assay: LPS-induced TNF-α production in NR8383 rat macrophages (ELISA); assay type: cell-based
Description: Method for FIG. 5. TNF-alpha assays were performed using PMX-30063. […] TNF-α concentrations in the supernatants were determined by ELISA using an immunoassay kit specific for rat TNF-α (R&D Systems, Minneapolis, MN) according to manufacturer's instructions.
Method for FIG. 6. TNF-alpha assays were performed using PMX-60056. NR8383 rat macrophage cells were pretreated with PMX-60056 for 45 minutes followed by treatment with 1 μg/ml LPS from E. coli (Sigma, St. Louis, MO) for 8 hours. TNF-α concentrations in the supernatants were determined by ELISA using an immunoassay kit specific for rat TNF-α (R&D Systems, Minneapolis, MN) according to manufacturer's instructions.
The TNF-α inhibition assay was performed according to the Method described for FIG. 5. […] TNF-α concentrations in the supernatants were determined by ELISA using an immunoassay kit specific for rat TNF-α (R&D Systems).
The TNF-α inhibition assay was performed according to the Method described for FIG. 6. NR8383 rat macrophage cells (CRL-2192. ATCC) were pretreated with PMX-60056 for 45 minutes followed by treatment with 1 μg/ml LPS for 8 hours. TNF-α concentrations in the supernatants were determined by ELISA using an immunoassay kit specific for rat TNF-α (R&D Systems).
as §2

[6] = molecular target: human PDE3A (Homo sapiens, UniProt Q14432); assay: PDE-Glo phosphodiesterase assay, PDE3; assay type: biochemical; settings: 2.75 ng PDE3A, 1 μM cAMP substrate, 15 min pre-incubation; read-out: IC50, inhibition of PDE3
Description: Method for FIG. 3. […] The compounds and PDE3A were mixed and pre-incubated at room temperature for 15 minutes. Substrate was added and the reaction was incubated for 7 minutes at room temperature. Data are presented as luminescence units (RLU).
Method for FIG. 4. Phosphodiesterase inhibition assays of PDE3 were performed using PMX-60056. The PDE-Glo phosphodiesterase assay (Promega, Madison, WI, USA Catalog No. V1361) was performed according to manufacturer's instruction using 2.75 ng of PDE3A, 1 μM cAMP substrate and PMX60056. The compounds and PDE3A were mixed and pre-incubated at room temperature for 15 minutes. Substrate was added and the reaction was incubated for 7 minutes at room temperature. Data are presented as luminescence units (RLU).
The compounds and PDE3A were mixed and pre-incubated at room temperature for 15 minutes. Substrate was added and the reaction was incubated. […]
as §2

Sequence of human PDE3A (Q14432 whole entry): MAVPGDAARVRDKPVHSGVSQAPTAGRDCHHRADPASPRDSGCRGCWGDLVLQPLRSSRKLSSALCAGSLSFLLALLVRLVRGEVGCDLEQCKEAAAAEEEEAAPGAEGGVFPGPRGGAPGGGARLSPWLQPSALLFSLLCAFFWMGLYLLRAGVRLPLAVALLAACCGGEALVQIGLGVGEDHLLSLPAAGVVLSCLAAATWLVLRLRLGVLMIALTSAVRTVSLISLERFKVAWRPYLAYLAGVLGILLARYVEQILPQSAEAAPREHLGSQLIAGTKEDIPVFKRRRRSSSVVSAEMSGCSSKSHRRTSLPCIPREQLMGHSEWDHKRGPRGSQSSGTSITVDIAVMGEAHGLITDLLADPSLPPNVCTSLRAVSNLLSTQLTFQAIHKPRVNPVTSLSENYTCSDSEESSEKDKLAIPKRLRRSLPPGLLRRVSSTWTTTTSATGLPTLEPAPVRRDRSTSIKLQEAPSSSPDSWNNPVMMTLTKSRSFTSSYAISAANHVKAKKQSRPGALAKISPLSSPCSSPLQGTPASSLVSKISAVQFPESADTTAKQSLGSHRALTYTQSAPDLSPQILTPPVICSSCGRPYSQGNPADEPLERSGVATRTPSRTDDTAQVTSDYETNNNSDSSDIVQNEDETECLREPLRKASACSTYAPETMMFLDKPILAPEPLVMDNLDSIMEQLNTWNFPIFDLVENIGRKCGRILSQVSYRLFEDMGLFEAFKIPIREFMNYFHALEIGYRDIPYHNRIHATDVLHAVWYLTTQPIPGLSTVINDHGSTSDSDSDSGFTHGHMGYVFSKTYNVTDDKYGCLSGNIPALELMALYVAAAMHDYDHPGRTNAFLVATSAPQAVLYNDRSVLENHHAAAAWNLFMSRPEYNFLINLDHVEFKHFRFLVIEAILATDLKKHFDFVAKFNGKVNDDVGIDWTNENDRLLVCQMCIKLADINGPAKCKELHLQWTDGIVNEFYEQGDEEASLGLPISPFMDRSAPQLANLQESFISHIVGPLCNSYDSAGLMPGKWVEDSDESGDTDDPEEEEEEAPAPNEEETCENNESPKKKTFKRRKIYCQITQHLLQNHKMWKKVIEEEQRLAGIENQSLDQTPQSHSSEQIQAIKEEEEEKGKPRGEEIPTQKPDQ
Sequence of human PDE4B2 (Q07343 1-564 isoform Q07343-2): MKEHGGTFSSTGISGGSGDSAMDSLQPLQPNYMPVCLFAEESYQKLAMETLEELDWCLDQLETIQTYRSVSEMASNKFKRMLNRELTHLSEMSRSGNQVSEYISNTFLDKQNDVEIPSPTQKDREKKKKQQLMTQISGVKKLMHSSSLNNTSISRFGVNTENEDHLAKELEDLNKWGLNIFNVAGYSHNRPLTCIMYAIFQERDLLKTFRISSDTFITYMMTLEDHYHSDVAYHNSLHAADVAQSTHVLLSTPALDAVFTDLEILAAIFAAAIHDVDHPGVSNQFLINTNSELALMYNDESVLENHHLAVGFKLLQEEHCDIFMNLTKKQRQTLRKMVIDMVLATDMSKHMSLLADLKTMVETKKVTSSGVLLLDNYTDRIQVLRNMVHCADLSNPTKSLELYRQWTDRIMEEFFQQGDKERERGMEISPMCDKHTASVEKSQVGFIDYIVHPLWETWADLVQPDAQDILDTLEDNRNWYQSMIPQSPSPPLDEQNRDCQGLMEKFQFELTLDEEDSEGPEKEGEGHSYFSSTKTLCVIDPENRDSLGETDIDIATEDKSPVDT

| IC50 [3] | IC50 [6] | SMILES | reduction of UC score ([1]; 5-ASA group, not significantly) | efficacy on ulcerative colitis score (in words) ([1]; 5-ASA positive control group) | mean reduction in IL-1β in distal colon tissue compared to DSS-treated control group [2] | mean reduction in IL-6 in distal colon tissue compared to DSS-treated control group [2] | effect on MCP-1 induction after LPS stimulation (in words) ([4]; NR8383, 45 min pretreatment, LPS 1 μg/ml 8 h) | decrease in MCP-1 levels ([4]; at 0.5 μM, NR8383, LPS 1 μg/ml 8 h) | effect on LPS-induced TNF-α production (in words) ([5]; NR8383, 45 min pretreatment, 1 μg/ml LPS 8 h) | inhibition at 0.0625 µM ([5]; Rattus norvegicus, Macrophage, at 62.5 nM PMX-60056, NR8383, LPS 1 μg/ml 8 h) |
| --- | --- | --- | --- | --- | --- | --- | --- | --- | --- | --- |
| – | – | Nc1ccc(O)c(C(=O)O)c1 [5-ASA, 5-aminosalicylic acid, reference compound] | 67% | no significant efficacy | 33% | 86% | – | – | – | – |
| ~3 µM | 3 µM | COc1ccc(NC(=O)[C@H](CCCCN)NC(=O)c2cc(NC(=O)[C@H](CCCCN)NC(=O)c3cc(NC(=O)[C@H](CCCCN)NC(=O)c4cc(NC(=O)[C@@H](N)CCCCN)ccc4OC)ccc3OC)ccc2OC)cc1C(N)=O [PMX-60056] | – | – | – | – | strong inhibition | ≥ 25% | inhibited | > 50% |
